Measured values reported in patent US20250296971A1, “GASTRIC INHIBITORY PEPTIDE RECEPTOR LIGANDS” (priority 2021, published 2025).
pIC50: −log10 of the molar value. *1 amine or outer side, *2 acyl side, *3 side chain or, on linkers, in order; H or OH if unused. Where a SMILES comes first, the peptide text is derived from it. Bridges are numbered along the chain shown (N, C = ends). [ ]: non-standard residue; d: D form. The star is where a group is joined. X5 = NC(=O)[C@H](CCCCNC(=O)CN1CCN(CC(=O)O)CCN(CC(=O)O)CCN(CC(=O)O)CC1)NC(=O)CCC(=O)NCCCOCCOCCOCCCN*; DOTA(Lu) = O=C1CN2CCN3CCN(CC(=O)*)CCN(CC2)CC(=O)[O][Lu]([O]1)[O]C(=O)C3; X27 = O=C1CN2CCN3CCN(CC(=O)*)CCN(CC2)CC(=O)[O][Eu]([O]1)[O]C(=O)C3; NH(1-deoxy-D-glucityl) = OC[C@@H](O)[C@@H](O)[C@H](O)[C@@H](O)CN*; Trp(5-Cl) = N[C@@H](Cc1c[nH]c2ccc(Cl)cc12)C(=O)O; Pyridine(2,6-diCH2) = c1cc(C[*:1])nc(C[*:2])c1; 1Nal = N[C@@H](Cc1cccc2ccccc12)C(=O)O; mXylylene = c1cc(C[*:1])cc(C[*:2])c1; Hyp = O=C(O)[C@@H]1C[C@@H](O)CN1; X1 = O=C(CN1CCC(N[*:1])CC1)[*:2]; Ac6c = NC1(C(=O)O)CCCCC1; Thp = NC1(C(=O)O)CCOCC1; Aib = CC(C)(N)C(=O)O

Target: T1, GIPR (CHO-K1-hGIPR cells) (Homo sapiens, UniProt P48546)
T1 construct: host or cells: CHO-K1
T1 sequence (P48546 22-466): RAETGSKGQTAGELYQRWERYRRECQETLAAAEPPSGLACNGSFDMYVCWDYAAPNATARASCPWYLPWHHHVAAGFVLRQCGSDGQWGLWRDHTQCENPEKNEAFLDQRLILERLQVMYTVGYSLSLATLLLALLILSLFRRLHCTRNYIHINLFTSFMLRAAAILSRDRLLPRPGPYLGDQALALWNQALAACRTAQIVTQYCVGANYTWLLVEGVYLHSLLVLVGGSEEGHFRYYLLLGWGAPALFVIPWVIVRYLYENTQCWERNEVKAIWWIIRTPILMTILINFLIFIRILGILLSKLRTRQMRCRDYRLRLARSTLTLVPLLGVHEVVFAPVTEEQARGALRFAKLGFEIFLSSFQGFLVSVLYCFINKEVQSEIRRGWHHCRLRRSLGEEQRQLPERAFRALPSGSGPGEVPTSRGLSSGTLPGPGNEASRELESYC
Experiment: FACS binding assay
Conditions: competition with 20 nM GIP-057, 4° C., 1 hour, read-out: pIC50 Category (converted)
Procedure, shortened: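 Read-out: flow cytometric median fluorescence intensity, APC/Cy5 channel, plotted vs peptide conc.; 4PL fit → EC50/pEC50 or IC50/pIC50. Cells: CHO-K1-hGIPR, Accutase-detached, 500.000/mL in PBS + 1% FCS. Detection: APC-streptavidin 1 μg/mL, 30 min, on ice.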

IC50	Structure (SMILES)
< 0.01 µM	CC[C@H](C)[C@@H]1NC(=O)[C@H](CC(C)C)NC(=O)C(C)(C)NC(=O)[C@@H](NC(=O)[C@H](CC(C)C)NC(=O)[C@H](CCC(=O)O)NC(=O)[C@@H]2CCCN2C(=O)[C@H](Cc2c[nH]c3ccc(Cl)cc23)NC(=O)[C@H](Cc2c[nH]c3ccccc23)NC(=O)[C@H](CC(=O)O)NC(C)=O)CSCc2cccc(c2)CSC[C@@H](C(=O)NCCCOCCOCCOCCCNC(=O)CCC(=O)N[C@@H](CCCCNC(=O)CN2CCN(CC(=O)O)CCN(CC(=O)O)CCN(CC(=O)O)CC2)C(N)=O)NC1=O [GIP-076, Ac-Asp-Trp-5Clw-Pro-Glu-Leu-[Cys(3MeBn)-Aib-Leu-Ile-Cys]-Ttds-Lys(DOTA)-NH2] (Ac-DW[Trp(5-Cl)]PELC[Aib]LIC-X5; linker 7-11 via mXylylene)
< 0.01 µM	CC[C@H](C)[C@@H]1NC(=O)[C@H](CC(C)C)NC(=O)C(C)(C)NC(=O)[C@@H](NC(=O)[C@@H](CC(C)C)NC(=O)[C@H](CCC(=O)O)NC(=O)[C@@H]2CCCN2C(=O)[C@H](Cc2cccc3ccccc23)NC(=O)[C@H](Cc2c[nH]c3ccccc23)NC(=O)[C@H](CC(=O)O)NC(C)=O)CSCc2cccc(c2)CSC[C@@H](C(=O)NCCCOCCOCCOCCCNC(=O)CCC(=O)N[C@@H](CCCCNC(=O)CN2CCN(CC(=O)O)CCN(CC(=O)O)CCN(CC(=O)O)CC2)C(N)=O)NC1=O [GIP-078, Ac-Asp-Trp-1Ni-Pro-Glu-leu-[Cys(3MeBn)-Aib-Leu-Ile-Cys]-Ttds-Lys(DOTA)-NH2] (Ac-DW[1Nal]PE[dL]C[Aib]LIC-X5; linker 7-11 via mXylylene)
< 0.01 µM	CC[C@H](C)[C@@H]1NC(=O)[C@H](CC(C)C)NC(=O)C2(CCCCC2)NC(=O)[C@@H](NC(=O)[C@@H](CC(C)C)NC(=O)[C@H](CCC(=O)O)NC(=O)[C@@H]2CCCN2C(=O)[C@H](Cc2cccc3ccccc23)NC(=O)[C@H](Cc2c[nH]c3ccccc23)NC(=O)[C@H](CC(=O)O)NC(C)=O)CSCc2cccc(c2)CSC[C@@H](C(=O)NCCCOCCOCCOCCCNC(=O)CCC(=O)N[C@@H](CCCCNC(=O)CN2CCN(CC(=O)O)CCN(CC(=O)O)CCN(CC(=O)O)CC2)C(N)=O)NC1=O [GIP-080, Ac-Asp-Trp-1Ni-Pro-Glu-leu-[Cys(3MeBn)-Egz-Leu-Ile-Cys]-Ttds-Lys(DOTA)-NH2] (Ac-DW[1Nal]PE[dL]C[Ac6c]LIC-X5; linker 7-11 via mXylylene)

Same assay, conditions: pIC50 Category, competition with 20 nM GIP-057, 4° C., 1 hour

Structure (SMILES)	pIC50
CC[C@H](C)[C@@H]1NC(=O)[C@H](CC(C)C)NC(=O)C2(CCOCC2)NC(=O)[C@@H](NC(=O)[C@@H](CC(C)C)NC(=O)[C@H](CCC(=O)O)NC(=O)[C@@H]2C[C@@H](O)CN2C(=O)[C@H](Cc2c[nH]c3ccc(Cl)cc23)NC(=O)[C@H](Cc2c[nH]c3ccccc23)NC(=O)[C@H](CC(=O)O)NC(=O)CN2CCC(NC(=O)[C@@H](CCC(=O)NC[C@H](O)[C@@H](O)[C@H](O)[C@H](O)CO)NC(=O)CN3CCN4CCN5CCN(CC3)CC(=O)[O][Lu]([O]C(=O)C4)[O]C(=O)C5)CC2)CSCc2cccc(n2)CSC[C@@H](C(=O)NC2CCN(CC(=O)N[C@H](CCC(=O)NC[C@H](O)[C@@H](O)[C@H](O)[C@H](O)CO)C(N)=O)CC2)NC1=O [GIP-062, LuDOTA-glu(AGLU)-APAc-Asp-Trp-5Clw-Hyp-Glu-leu-[Cys(2Lut)-Thp-Leu-Ile-Cys]-APAc-glu(AGLU)-NH2] ({DOTA(Lu)}-[dE](NH(1-deoxy-D-glucityl))[X1]DW[Trp(5-Cl)][Hyp]E[dL]C[Thp]LIC[X1][dE](NH(1-deoxy-D-glucityl))-NH2; linker 9-13 via Pyridine(2,6-diCH2))	> 8.00
CC[C@H](C)[C@@H]1NC(=O)[C@H](CC(C)C)NC(=O)C2(CCOCC2)NC(=O)[C@@H](NC(=O)[C@@H](CC(C)C)NC(=O)[C@H](CCC(=O)O)NC(=O)[C@@H]2C[C@@H](O)CN2C(=O)[C@H](Cc2c[nH]c3ccc(Cl)cc23)NC(=O)[C@H](Cc2c[nH]c3ccccc23)NC(=O)[C@H](CC(=O)O)NC(=O)CN2CCC(NC(=O)[C@@H](CCC(=O)NC[C@H](O)[C@@H](O)[C@H](O)[C@H](O)CO)NC(=O)CN3CCN4CCN5CCN(CC3)CC(=O)[O][Eu]([O]C(=O)C4)[O]C(=O)C5)CC2)CSCc2cccc(n2)CSC[C@@H](C(=O)NC2CCN(CC(=O)N[C@H](CCC(=O)NC[C@H](O)[C@@H](O)[C@H](O)[C@H](O)CO)C(N)=O)CC2)NC1=O [GIP-064, Europium-Complex of DOTA-glu(AGLU)-APAc-Asp-Trp-5Clw-Hyp-Glu-leu-[Cys(2Lut)-Thp-Leu-Ile-Cys]-APAc-glu(AGLU)-NH2] (X27-[dE](NH(1-deoxy-D-glucityl))[X1]DW[Trp(5-Cl)][Hyp]E[dL]C[Thp]LIC[X1][dE](NH(1-deoxy-D-glucityl))-NH2; linker 9-13 via Pyridine(2,6-diCH2))	> 8.00
